# ChEMBL document CHEMBL3865840, “Minimizing CYP2C9 Inhibition of Exposed-Pyridine NAMPT (Nicotinamide Phosphoribosyltransferase) Inhibitors” (J Med Chem, 2016)
# The source made the active and inactive calls. The calls are words filed in the database; no cut-off is given here.
# Key:
# Cytochrome P450 2C19 [1] = target: T1, Cytochrome P450 2C19 (Homo sapiens, UniProt P33261); experiment: Reversible inhibition of CYP2C19 in human liver microsomes using […] as substrate in presence of NADPH by LC-MS/MS analysis; assay type: ADME
# T1 sequence (P33261 whole entry): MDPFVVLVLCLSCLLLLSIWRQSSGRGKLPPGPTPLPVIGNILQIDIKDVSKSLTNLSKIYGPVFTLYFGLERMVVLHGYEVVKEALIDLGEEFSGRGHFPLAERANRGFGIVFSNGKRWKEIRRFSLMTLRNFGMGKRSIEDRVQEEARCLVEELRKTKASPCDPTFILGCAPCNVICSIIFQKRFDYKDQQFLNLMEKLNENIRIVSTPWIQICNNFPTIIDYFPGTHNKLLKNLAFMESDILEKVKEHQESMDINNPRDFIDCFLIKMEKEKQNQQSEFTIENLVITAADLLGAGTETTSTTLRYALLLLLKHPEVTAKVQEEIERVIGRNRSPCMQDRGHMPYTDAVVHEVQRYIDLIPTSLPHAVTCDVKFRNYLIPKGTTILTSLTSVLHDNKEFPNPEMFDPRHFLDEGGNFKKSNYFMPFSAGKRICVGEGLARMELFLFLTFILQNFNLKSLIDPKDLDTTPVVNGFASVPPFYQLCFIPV
# Mus musculus [2] = experiment: Increase in body weight in human HT1080 tumor bearing nude NCR mouse cachexia model at 25 to 50 mg/kg administered via oral gavage twice per day for 5 consecutive days measured up to 20 days; assay type: functional, organism-based
# [3] = Cmax in Beagle dog at 3 mg/kg, po; assay type: ADME, organism-based, Canis lupus familiaris; design: dose 3 mg/kg, route oral; settings: in vivo
# [4] = Kinetic solubility of the compound in PBS at 200 uM at pH 7.4 after 24 hrs by liquid chromatography-chemiluminescence nitrogen detection assay; assay type: physicochemical; settings: read-out: Kinetic_solubility
# [5] = Cmax in Sprague-Dawley rat at 5 mg/kg, po; assay type: ADME, organism-based; design: dose 5 mg/kg, route oral; settings: in vivo
# Cytochrome P450 2C19 [6] = target: T1, Cytochrome P450 2C19; experiment: Time dependent inhibition of CYP2C19 in human liver microsomes assessed as substrate AUC shift; assay type: ADME; design: scale not given: the % may be the effect or the level left
# [7] = Protein binding in human plasma at 5 uM after 4 hrs by rapid equilibrium dialysis based LC-MS/MS analysis; assay type: ADME, cell-free; settings: read-out: PPB (converted)
# Cytochrome P450 1A2 [8] = target: T2, Cytochrome P450 1A2 (Homo sapiens, UniProt P05177); experiment: Reversible inhibition of CYP1A2 in human liver microsomes using […] as substrate in presence of NADPH by LC-MS/MS analysis; assay type: ADME
# T2 sequence (P05177 whole entry): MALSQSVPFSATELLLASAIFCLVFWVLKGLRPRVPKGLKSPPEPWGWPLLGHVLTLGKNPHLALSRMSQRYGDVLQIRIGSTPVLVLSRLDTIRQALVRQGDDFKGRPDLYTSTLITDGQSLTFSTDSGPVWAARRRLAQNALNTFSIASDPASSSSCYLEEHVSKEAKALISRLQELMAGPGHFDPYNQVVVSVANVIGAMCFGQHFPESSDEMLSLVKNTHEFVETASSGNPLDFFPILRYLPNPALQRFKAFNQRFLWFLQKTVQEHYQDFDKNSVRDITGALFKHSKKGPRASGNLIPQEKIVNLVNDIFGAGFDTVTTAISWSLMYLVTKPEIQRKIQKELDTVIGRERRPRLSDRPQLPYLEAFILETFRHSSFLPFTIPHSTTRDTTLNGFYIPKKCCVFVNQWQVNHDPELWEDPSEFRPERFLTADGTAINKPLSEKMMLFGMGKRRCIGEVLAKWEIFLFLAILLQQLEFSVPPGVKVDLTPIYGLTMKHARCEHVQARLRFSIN
# [9] = Apparent permeability from apical to basolateral side in MDCK cells at 10 uM by LC/MS/MS analysis; assay type: ADME, cell-based, Canis lupus familiaris; settings: dog
# [10] = Half life in Beagle dog at 0.5 mg/kg, iv; assay type: ADME, organism-based, Canis lupus familiaris; settings: in vivo
# Cytochrome P450 3A4 [11] = target: T3, Cytochrome P450 3A4 (Homo sapiens, UniProt P08684); experiment: Time dependent inhibition of CYP3A4 in human liver microsomes assessed as substrate AUC shift using testosterone as substrate; assay type: ADME; design: scale not given: the % may be the effect or the level left
# T3 sequence (P08684 whole entry): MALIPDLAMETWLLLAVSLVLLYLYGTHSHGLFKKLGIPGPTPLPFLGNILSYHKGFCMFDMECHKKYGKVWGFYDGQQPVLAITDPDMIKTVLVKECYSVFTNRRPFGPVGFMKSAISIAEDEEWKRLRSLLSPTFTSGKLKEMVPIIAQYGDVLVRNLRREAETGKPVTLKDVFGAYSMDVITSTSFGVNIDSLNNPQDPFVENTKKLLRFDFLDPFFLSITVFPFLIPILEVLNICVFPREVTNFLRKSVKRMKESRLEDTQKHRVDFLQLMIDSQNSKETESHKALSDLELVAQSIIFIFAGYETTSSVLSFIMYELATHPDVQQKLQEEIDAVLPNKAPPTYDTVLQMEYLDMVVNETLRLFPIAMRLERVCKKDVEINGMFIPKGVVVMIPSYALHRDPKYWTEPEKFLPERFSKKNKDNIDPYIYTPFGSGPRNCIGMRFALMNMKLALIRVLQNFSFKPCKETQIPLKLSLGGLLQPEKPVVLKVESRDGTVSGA
# Cytochrome P450 2D6 [12] = target: T4, Cytochrome P450 2D6 (Homo sapiens, UniProt P10635); experiment: Time dependent inhibition of CYP2D6 in human liver microsomes assessed as substrate AUC shift; assay type: ADME; design: scale not given: the % may be the effect or the level left
# T4 sequence (P10635 whole entry): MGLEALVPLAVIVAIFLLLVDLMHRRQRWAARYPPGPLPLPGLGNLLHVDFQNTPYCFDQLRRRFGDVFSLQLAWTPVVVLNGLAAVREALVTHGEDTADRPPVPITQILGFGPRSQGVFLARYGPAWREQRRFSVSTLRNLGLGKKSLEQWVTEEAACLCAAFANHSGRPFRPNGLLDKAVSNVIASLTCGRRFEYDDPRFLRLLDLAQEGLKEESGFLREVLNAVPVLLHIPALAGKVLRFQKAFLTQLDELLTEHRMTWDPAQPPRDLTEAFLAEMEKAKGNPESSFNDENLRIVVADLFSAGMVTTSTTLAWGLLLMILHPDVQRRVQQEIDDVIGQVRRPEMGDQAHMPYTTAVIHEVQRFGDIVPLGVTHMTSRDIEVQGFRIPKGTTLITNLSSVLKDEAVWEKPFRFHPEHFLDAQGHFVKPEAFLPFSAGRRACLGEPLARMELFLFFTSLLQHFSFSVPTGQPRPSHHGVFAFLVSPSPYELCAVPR
# [13] = Clearance in Beagle dog at 0.5 mg/kg, iv; assay type: ADME, organism-based, Canis lupus familiaris; settings: in vivo
# Cytochrome P450 3A4 [14] = target: T3, Cytochrome P450 3A4; experiment: Reversible inhibition of CYP3A4 in human liver microsomes using midazolam as substrate in presence of NADPH by LC-MS/MS analysis; assay type: ADME
# Mus musculus [15] = experiment: Toxicity in nude NCR mouse xenografted with human HT1080 cells assessed as change in body weight at 25 to 50 mg/kg administered via oral gavage twice per day for 5 consecutive days measured up to 20 days; assay type: organism-based, HT-1080; settings: in vivo, 480 h
# [16] = AUC in Beagle dog at 3 mg/kg, po; assay type: ADME, organism-based, Canis lupus familiaris; settings: in vivo
# [17] = Clearance in Sprague-Dawley rat at 1 mg/kg, iv; assay type: ADME, organism-based; settings: in vivo
# [18] = Volume of distribution at steady state in Beagle dog at 0.5 mg/kg, iv; assay type: ADME, organism-based, Canis lupus familiaris; settings: in vivo, read-out: Vdss
# [19] = Oral bioavailability in Beagle dog at 3 mg/kg; assay type: ADME, organism-based, Canis lupus familiaris; settings: in vivo
# [20] = Apparent permeability from basolateral to apical side in MDCK cells at 10 uM by LC/MS/MS analysis; assay type: ADME, cell-based, Canis lupus familiaris; settings: dog
# Cytochrome P450 2C9 [21] = target: T5, Cytochrome P450 2C9 (Homo sapiens, UniProt P11712); experiment: Time dependent inhibition of CYP2C9 in human liver microsomes assessed as substrate AUC shift; assay type: ADME; design: scale not given: the % may be the effect or the level left
# T5 sequence (P11712 whole entry): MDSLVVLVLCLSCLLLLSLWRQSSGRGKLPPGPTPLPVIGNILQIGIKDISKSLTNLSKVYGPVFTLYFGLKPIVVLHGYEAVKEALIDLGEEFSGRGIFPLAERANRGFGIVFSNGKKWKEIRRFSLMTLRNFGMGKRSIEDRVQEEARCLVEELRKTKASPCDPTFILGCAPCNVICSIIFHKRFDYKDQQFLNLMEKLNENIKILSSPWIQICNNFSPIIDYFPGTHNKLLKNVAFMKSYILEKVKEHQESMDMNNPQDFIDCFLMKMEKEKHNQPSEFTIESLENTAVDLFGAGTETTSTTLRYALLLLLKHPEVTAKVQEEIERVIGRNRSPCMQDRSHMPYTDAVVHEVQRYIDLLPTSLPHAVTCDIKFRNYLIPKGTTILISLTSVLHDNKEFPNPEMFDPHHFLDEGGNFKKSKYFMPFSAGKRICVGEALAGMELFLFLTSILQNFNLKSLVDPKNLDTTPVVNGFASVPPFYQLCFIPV
# Cytochrome P450 1A2 [22] = target: T2, Cytochrome P450 1A2; experiment: Time dependent inhibition of CYP1A2 in human liver microsomes assessed as substrate AUC shift; assay type: ADME; design: scale not given: the % may be the effect or the level left
# [23] = Thermodynamic solubility of the compound in PBS at pH 7.4 after 24 hrs by liquid chromatography-chemiluminescence nitrogen detection assay; assay type: physicochemical; settings: read-out: Therm_solubility
# HT-1080 = experiment: Antitumor activity against human HT1080 cells xenografted in nude NCR mouse assessed as tumor growth inhibition at 25 to 50 mg/kg administered via oral gavage twice per day for 5 consecutive days measured up to 20 days; assay type: functional, organism-based
# [24] = Time at which plasma concentration stays above plasma protein binding corrected human HT1080 cells IC50 in nude NCR mouse at 25 mg/kg, po bid administered via gavage; assay type: ADME, organism-based, HT-1080; settings: in vivo
# [25] = Half life in Sprague-Dawley rat at 1 mg/kg, iv; assay type: ADME, organism-based; settings: in vivo
# Cytochrome P450 3A4 [26] = target: T3, Cytochrome P450 3A4; experiment: Reversible inhibition of CYP3A4 in human liver microsomes using testosterone as substrate in presence of NADPH by LC-MS/MS analysis; assay type: ADME
# [27] = Protein binding in dog plasma at 5 uM after 4 hrs by rapid equilibrium dialysis based LC-MS/MS analysis; assay type: ADME, cell-free, Canis lupus familiaris; settings: read-out: PPB (converted)
# [28] = Volume of distribution at steady state in Sprague-Dawley rat at 1 mg/kg, iv; assay type: ADME, organism-based; settings: in vivo, read-out: Vdss
# [29] = Protein binding in cynomolgus monkey plasma at 5 uM after 4 hrs by rapid equilibrium dialysis based LC-MS/MS analysis; assay type: ADME, cell-free, Macaca fascicularis; settings: read-out: PPB (converted)
# [30] = Protein binding in rat plasma at 5 uM after 4 hrs by rapid equilibrium dialysis based LC-MS/MS analysis; assay type: ADME, cell-free; settings: read-out: PPB (converted)
# [31] = Oral bioavailability in Sprague-Dawley rat at 5 mg/kg; assay type: ADME, organism-based; settings: in vivo
# [32] = Octanol-aqueous phosphate buffer distribution coefficient, log D of the compound at pH 7.4 after 1 hr by LC/MS/MS analysis; assay type: physicochemical
# Cytochrome P450 2C9 [33] = target: T5, Cytochrome P450 2C9
# Cytochrome P450 3A4 [34] = target: T3, Cytochrome P450 3A4; experiment: Time dependent inhibition of CYP3A4 in human liver microsomes assessed as substrate AUC shift using midazolam as substrate; assay type: ADME; design: scale not given: the % may be the effect or the level left
# Cytochrome P450 2D6 [35] = target: T4, Cytochrome P450 2D6; experiment: Reversible inhibition of CYP2D6 in human liver microsomes using […] as substrate in presence of NADPH by LC-MS/MS analysis; assay type: ADME
# [36] = AUC in Sprague-Dawley rat at 5 mg/kg, po; assay type: ADME, organism-based; settings: in vivo
# [37] = Protein binding in mouse plasma at 5 uM after 4 hrs by rapid equilibrium dialysis based LC-MS/MS analysis; assay type: ADME, cell-free; settings: read-out: PPB (converted)
# Cytochrome P450 2C19 [38] = target: T1, Cytochrome P450 2C19
# Cytochrome P450 1A2 [39] = target: T2, Cytochrome P450 1A2
# Cytochrome P450 3A4 [40] = target: T3, Cytochrome P450 3A4; experiment: Inhibition of CYP3A4 in human liver microsomes using testosterone as substrate in presence of NADPH by LC-MS/MS analysis; assay type: ADME
# Cytochrome P450 3A4 [41] = target: T3, Cytochrome P450 3A4
# Cytochrome P450 2C9 [42] = target: T5, Cytochrome P450 2C9; remark: listed apart in the source
# Cytochrome P450 2D6 [43] = target: T4, Cytochrome P450 2D6
compound,measurement,setting,value
CC1(OC(=O)N2CCC3(CC2)C[C@@H]3CNC(=O)N2Cc3ccncc3C2)COC1,IC50,Cytochrome P450 2C19 [1],> 10 µM
same,Activity,Mus musculus [2],Active
same,Cmax,[3],4800 nM
same,"solubility kinetic at 24 h, 200 µM",[4],> 0.1 mM
same,Cmax,[5],640 nM
same,Activity,Cytochrome P450 2C19 [6],< 15%
same,"fraction unbound at 4 h, 5 µM",[7],0.44
same,IC50,Cytochrome P450 1A2 [8],> 10 µM
same,Papp A→B at 10 µM,[9],8.8 ×10⁻⁶ cm/s
same,half-life,[10],1.2 h
same,Activity,Cytochrome P450 3A4 [11],< 15%
same,Activity,Cytochrome P450 2D6 [12],< 15%
same,clearance,[13],10.8 mL/min/kg
same,IC50,Cytochrome P450 3A4 [14],> 10 µM
same,Activity,Mus musculus [15],Non-Toxic
same,AUC,[16],10.5 µM·h
same,clearance,[17],110 mL/min/kg
same,Vd,[18],0.8 L/kg
same,bioavailability,[19],86%
same,Papp B→A at 10 µM,[20],12 ×10⁻⁶ cm/s
same,Activity,Cytochrome P450 2C9 [21],< 15%
same,Activity,Cytochrome P450 1A2 [22],< 15%
same,solubility thermodynamic at 24 h,[23],> 6 mM
same,TGI,HT-1080,Active
same,Time,[24],20 h
same,half-life,[25],1.4 h
same,IC50,Cytochrome P450 3A4 [26],> 10 µM
same,"fraction unbound at 4 h, 5 µM",[27],0.34
same,Vd,[28],9 L/kg
same,"fraction unbound at 4 h, 5 µM",[29],0.46
same,"fraction unbound at 4 h, 5 µM",[30],0.44
same,bioavailability,[31],29%
same,logD at 1 h,[32],1.2
same,IC50,Cytochrome P450 2C9 [33],> 10 µM
same,Activity,Cytochrome P450 3A4 [34],< 15%
same,IC50,Cytochrome P450 2D6 [35],> 10 µM
same,AUC,[36],0.55 µM·h
same,"fraction unbound at 4 h, 5 µM",[37],0.47
O=C(NCc1ccc(S(=O)(=O)c2cccc(C(F)(F)F)c2)cc1)c1cnc2[nH]ncc2c1,IC50,Cytochrome P450 2C19 [38],6.5 µM
same,IC50,Cytochrome P450 1A2 [39],> 10 µM
same,IC50,Cytochrome P450 3A4 [40],7.9 µM
same,IC50,Cytochrome P450 3A4 [41],9 µM
same,IC50,Cytochrome P450 2C9 [42],4.8 µM
same,IC50,Cytochrome P450 2D6 [43],> 10 µM
same,IC50,Cytochrome P450 2C9 [33],0.07 µM
